Like-named read-outs stand apart in the source and are kept apart here.
B1: MexB: Pseudomonas aeruginosa PAO1 MexAB-OprM multidrug efflux pump (protein, UniProt P52002 1-1046, looked up)
Multidrug resistance protein …: MSKFFIDRPIFAWVIALVIMLAGGLSILSLPVNQYPAIAPPAIAVQVSYPGASAETVQDTVVQVIEQQMNGIDNLRYISSESNSDGSMTITVTFEQGTDPDIAQVQVQNKLQLATPLLPQEVQRQGIRVTKAVKNFLMVVGVVSTDGSMTKEDLSNYIVSNIQDPLSRTKGVGDFQVFGSQYSMRIWLDPAKLNSYQLTPGDVSSAIQAQNVQISSGQLGGLPAVKGQQLNATIIGKTRLQTAEQFENILLKVNPDGSQVRLKDVADVGLGGQDYSINAQFNGSPASGIAIKLATGANALDTAKAIRQTIANLEPFMPQGMKVVYPYDTTPVVSASIHEVVKTLGEAILLVFLVMYLFLQNFRATLIPTIAVPVVLLGTFGVLAAFGFSINTLTMFGMVLAIGLLVDDAIVVVENVERVMAEEGLSPREAARKSMGQIQGALVGIAMVLSAVFLPMAFFGGSTGVIYRQFSITIVSAMALSVIVALILTPALCATMLKPIEKGDHGEHKGGFFGWFNRMFLSTTHGYERGVASILKHRAPYLLIYVVIVAGMIWMFTRIPTAFLPDEDQGVLFAQVQTPPGSSAERTQVVVDSMREYLLEKESSSVSSVFTVTGFNFAGRGQSSGMAFIMLKPWEERPGGENSVFELAKRAQMHFFSFKDAMVFAFAPPSVLELGNATGFDLFLQDQAGVGHEVLLQARNKFLMLAAQNPALQRVRPNGMSDEPQYKLEIDDEKASALGVSLADINSTVSIAWGSSYVNDFIDRGRVKRVYLQGRPDARMNPDDLSKWYVRNDKGEMVPFNAFATGKWEYGSPKLERYNGVPAMEILGEPAPGLSSGDAMAAVEEIVKQLPKGVGYSWTGLSYEERLSGSQAPALYALSLLVVFLCLAALYESWSIPFSVMLVVPLGVIGALLATSMRGLSNDVFFQVGLLTTIGLSAKNAILIVEFAKELHEQGKGIVEAAIEACRMRLRPIVMTSLAFILGVVPLAISTGAGSGSQHAIGTGVIGGMVTATVLAIFWVPLFYVAVSTLFKDEASKQQASVEKGQ
B2: AcrB: Escherichia coli K12 AcrAB efflux pump, plasmid-based copy (protein, UniProt P31224 1-1049, looked up)
Multidrug efflux pump subunit …: MPNFFIDRPIFAWVIAIIIMLAGGLAILKLPVAQYPTIAPPAVTISASYPGADAKTVQDTVTQVIEQNMNGIDNLMYMSSNSDSTGTVQITLTFESGTDADIAQVQVQNKLQLAMPLLPQEVQQQGVSVEKSSSSFLMVVGVINTDGTMTQEDISDYVAANMKDAISRTSGVGDVQLFGSQYAMRIWMNPNELNKFQLTPVDVITAIKAQNAQVAAGQLGGTPPVKGQQLNASIIAQTRLTSTEEFGKILLKVNQDGSRVLLRDVAKIELGGENYDIIAEFNGQPASGLGIKLATGANALDTAAAIRAELAKMEPFFPSGLKIVYPYDTTPFVKISIHEVVKTLVEAIILVFLVMYLFLQNFRATLIPTIAVPVVLLGTFAVLAAFGFSINTLTMFGMVLAIGLLVDDAIVVVENVERVMAEEGLPPKEATRKSMGQIQGALVGIAMVLSAVFVPMAFFGGSTGAIYRQFSITIVSAMALSVLVALILTPALCATMLKPIAKGDHGEGKKGFFGWFNRMFEKSTHHYTDSVGGILRSTGRYLVLYLIIVVGMAYLFVRLPSSFLPDEDQGVFMTMVQLPAGATQERTQKVLNEVTHYYLTKEKNNVESVFAVNGFGFAGRGQNTGIAFVSLKDWADRPGEENKVEAITMRATRAFSQIKDAMVFAFNLPAIVELGTATGFDFELIDQAGLGHEKLTQARNQLLAEAAKHPDMLTSVRPNGLEDTPQFKIDIDQEKAQALGVSINDINTTLGAAWGGSYVNDFIDRGRVKKVYVMSEAKYRMLPDDIGDWYVRAADGQMVPFSAFSSSRWEYGSPRLERYNGLPSMEILGQAAPGKSTGEAMELMEQLASKLPTGVGYDWTGMSYQERLSGNQAPSLYAISLIVVFLCLAALYESWSIPFSVMLVVPLGVIGALLAATFRGLTNDVYFQVGLLTTIGLSAKNAILIVEFAKDLMDKEGKGLIEATLDAVRMRLRPILMTSLAFILGVMPLVISTGAGSGAQNAVGTGVMGGMVTATVLAIFFVPVFFVVVRRRFSRKNEDIEHSHTVDHH

Columns and labels:
E. coli DH1 ΔacrAB [1] = settings: for toxicity of the biofuel to cell growth: E. coli host, in words; for biofuel level that inhibited growth: added to pooled culture in M9 minimal medium, aimed at an inhibitory concentration that reduced growth by 25%
Experimental: In order to screen the efflux pump library against a variety of biofuels we devised a competition-based strategy to select for pumps that improved biofuel tolerance (FIG. 1A). Cells containing plasmids with individual pumps were grown separately and then pooled so that all individual strains were represented equally. This pooled culture was then grown both with and without biofuel, and maintained through serial dilutions every 10-14 hours over a total of 96 hours. At each dilution time point, plasmids from each culture were isolated and a custom microarray was used to quantify the amount of each efflux pump plasmid present in the culture (Methods).
Pooled culture glycerol stocks were used to inoculate M9 minimal medium with 30 μg/ml kanamycin and 10 μM IPTG. The culture was then divided into tubes to a final volume of 5 ml and biofuel was added directly to the tubes. All conditions were prepared in triplicate. Cultures were grown at 37° C. with orbital shaking at 200 rpm for all experiments.
Every 10-14 hours the cultures were diluted 1:100 into 5 ml of fresh M9 minimal medium with kanamycin, IPTG, and biofuel (where applicable). For the time-course assay, cultures were spun down at the completion of a growth cycle and plasmids were isolated. For end point competition assays, plasmid was isolated from the culture after 72 hours of serial dilution.
Custom microarrays (NimbleGen, Roche, USA) were used to measure the relative quantities of the efflux pumps present in the plasmid DNA isolated from the competition cultures. Arrays were designed so that they contained probes for all HAE1 annotated efflux pumps from all sequenced bacterial genomes. 12×135K arrays were used to allow for 12 experiments per slide.
Plasmid DNA was labeled and hybridized following the protocol for NimbleGen Comparative Genomic Hybridization Microarrays with minor modifications (Supporting Methods). Data were normalized using the standard settings for RMA analysis in the NimbleScan software. Probe values were averaged using a custom Matlab script (Mathworks, Inc.). […] For the positive hybridization control, all library plasmids were prepared individually and combined in vitro in equal proportions. For the negative hybridization control, a plasmid with the same vector backbone as those in the library, but no efflux pump, was isolated from DH1 ΔacrAB. Both hybridization controls were labeled and hybridized to the array using the methods described above.
This required the use of a co-solvent in order to accurately pipette small volumes. In both cases dimethylformamide (DMF) was used as the co-solvent. […] Other biofuels were added directly without the use of a co-solvent.

E. coli DH1 ΔacrAB [2] = type: cell-based; settings: for effect of efflux pumps on tolerance to the biofuel (survival relative to pump-free negative control): top performing pump versus negative control, FIG. 3B and 3D
Experimental: Individual strains were adapted to M9 minimal medium as described in the Supporting Methods. […] The biofuel being tested was added directly to the cultures and they were grown overnight at 37° C. with orbital shaking. For end point measurements, the optical density was measured after 14 hours of growth in triplicate 5 ml cultures. For growth curve measurements, cultures were grown in triplicate in 24-well plates with 800 μl per well and optical density was measured every 10 minutes with a plate reader (BioTek Synergy 4, USA).

[3] = 2% geranyl acetate, serial dilution competition

| Molecule | toxicity of the biofuel to cell growth (E. coli DH1 ΔacrAB [1]) | biofuel level that inhibited growth (E. coli DH1 ΔacrAB [1]) [% v/v] | effect of efflux pumps on tolerance to the biofuel (survival relative to pump-free negative control) (E. coli DH1 ΔacrAB [2]) | outcome of efflux pump in competition (E. coli DH1 ΔacrAB [1]; [3]) | outcome of efflux pump in competition (E. coli DH1 ΔacrAB [1]; 2% α-pinene, 72 hours serial dilution) | growth of individual pump-expressing strain (E. coli DH1 ΔacrAB [2]; with 2% α-pinene, grown independently) | outcome of efflux pump in competition (E. coli DH1 ΔacrAB [1]; 0.025% limonene, 72 hours serial dilution) | outcome of efflux pump in competition (E. coli DH1 ΔacrAB [1]; 0.05% geraniol, 72 hours serial dilution) |
| --- | --- | --- | --- | --- | --- | --- | --- | --- |
| CC(C)=CCC/C(C)=C/CO [geraniol] | high and quite toxic | 0.05 | increase survival several-fold |  |  |  |  |  |
| CC(=O)OC/C=C(\C)CCC=C(C)C [geranyl acetate] |  | 2 | essentially confer immunity |  |  |  |  |  |
| CC(C)CCO [isopentanol] | toxic | 0.25 | none of the pumps we tested confer an advantage |  |  |  |  |  |
| CCCCO [n-butanol] | toxic | 0.5 | none of the pumps we tested confer an advantage |  |  |  |  |  |
| B1 |  |  |  | survived the competition | borderline survivor | survives well in α-pinene for the first 10 hours |  |  |
| B2 |  |  |  | survived the competition |  |  | best exported | best exported |
